For three molecules, mortality results are on record in EP0811615A1, “1-Aryl-5-(substituted alkyl (thio) amido) pyrazoles and their use as pesticides” (RHONE-POULENC AGROCHIMIE, priority 1996, dated 1997).

Holding throughout (type): in vivo
Assay [1] relates to southern armyworm. The experiment in a line: Southern armyworm foliar spray test on bean plants. The note with it: Spodoptera eridania, 120 h; foliar application at 100 ppm; second instar larvae, held five days; read-out: pest mortality SAW. How it is done: (§1) For mite, aphid, southern armyworm, Mexican bean beetle, and tobacco budworm tests, a solution or suspension was prepared by adding 10 mg of the test compound to a solution of 160 mg of dimethylformamide, 838 mg of acetone, 2 mg of a 3:1 ratio of Triton X-172 : Triton X-152 (respectively, mainly anionic and nonionic low foam emulsifiers which are each anhydrous blends of alkylaryl polyether alcohols with organic sulfonates), and […] of water. The result was a concentration of 100 ppm of the test compound.
(§2) Southern armyworm: Potted bean plants, were placed on a revolving turntable and sprayed with 100 ml of the 100 ppm test compound formulation by use of a DeVilbiss spray gun set at 40 psig air pressure. As an untreated control, 100 ml of a water-acetone-DMF-emulsifier solution, containing no test compound, were also sprayed on plants. A treated control with a commercial technical compound, either cypermethrin or sulprofos, formulated in the same manner, was tested as a standard. When dry, the leaves were placed in plastic cups lined with moistened filter paper. Five randomly selected second instar southern armyworm larvae were introduced into each cup which was closed and held for five days. Larvae which were unable to move the length of the body, even upon stimulation by prodding, were considered dead.

Assay [2] has as its system Mexican bean beetle. The experiment in a line: Mexican bean beetle foliar spray test on bean plants. The settings on record: Epilachna varivestis, 120 h; foliar application at 100 ppm; second instar larvae, held five days; read-out: pest mortality MBB. How it is done: as §1
as §2, with “Mexican bean beetle:” for “Southern armyworm:”, “plants” for “plants,”, “formulation, sufficient to wet the plants to runoff,” for “formulation”, “Mexican bean beetle” for “southern armyworm”

The subject of assay [3] is housefly. The experiment in a line: House fly bait test. The settings on record: Musca domestica; bait application at 100 ppm; adult flies, after 24 hours; read-out: pest mortality HF. From the text:
For housefly tests, the formulation was initially prepared in a similar manner to the above, but in 16.3 g of water with corresponding adjustment of other components, providing a 200 ppm concentration. Final dilution with an equal volume of a 20% by weight aqueous solution of sucrose provided a 100 ppm concentration of the test compound. When necessary, sonication was provided to insure complete dispersion.
House fly: Four to six day old adult house flies were reared according to the specifications of the Chemical Specialties Manufacturing Association (Blue Book, McNair-Dorland Co., N.Y. 1954; pages 243-244, 261) under controlled conditions. The flies were immobilized by anesthetizing with carbon dioxide and twenty five immobilized individuals, males and females, were transferred to a cage consisting of a standard food strainer and a wrapping-paper-covered surface. Ten ml of the 100 ppm test compound formulation were added to a soufflé cup containing an absorbent cotton pad. As an untreated control, 10 ml of a water-acetone-DMF-emulsifier-sucrose solution, containing no test compound, were applied in a similar manner. A treated control with a commercial technical compound, malathion, formulated in the same manner, was tested as a standard. The bait cup was introduced inside the food strainer prior to admitting the anesthetized flies.

Assay [4] relates to southern root-knot nematode. The assay can be described thus: Southern root-knot nematode soil test on tomato. Set-up: dose or concentration left out as unconfirmed. The settings on record: Meloidogyne incognita; Soil Conc. at 21 Kg/ha; second stage juveniles; read-out: pest mortality Nema (J2). How it is done:
For southern root-knot nematode and systemic tests for southern armyworm, cotton aphid, tobacco budworm and greenbug, a stock solution or suspension was prepared by adding 15 mg of the test compound to 250 mg of dimethylformamide, 1250 mg of acetone and 3 mg of the emulsifier blend referenced above. Water was then added to provide a test compound concentration of 150 ppm. When necessary, sonication was provided to insure complete dispersion.
Southern root-knot nematode: Infected roots of tomato plants, containing egg masses of southern root-knot nematode, were removed from a stock culture and cleaned of soil by shaking and washing with tap water. The nematode eggs were separated from the root tissue and rinsed with water. Samples of the egg suspension were placed on a fine screen over a receiving bowl, in which the water level was adjusted to be in contact with the screen. From the bowl, juveniles were collected on a fine screen. The bottom of a cone-shaped container was plugged with coarse vermiculite and then filled to within 1.5 cm of the top with about a 200 ml volume of pasteurized soil. Then into a hole made in the center of the soil in the cone was pipetted an aliquot of the 150 ppm test compound formulation. A treated control with a commercial technical compound, fenamifos, formulated in a similar manner, was tested as a standard. As an untreated control, an aliquot of a water-acetone-DMF-emulsifier solution, containing no test compound, was applied in a similar manner. Immediately after treatment of the soil with the test compound there were added to the top of each cone 1000 second stage juvenile southern root-knot nematodes. After 3 days, a single healthy tomato seedling was then transplanted into the cone. The cone, containing the infested soil and tomato seedling, was kept in the greenhouse for 3 weeks. At the termination of the test, […], […]

Assay [5] concerns twospotted spider mite. The experiment in a line: Twospotted spider mite test. The note with it: Tetranychus urticae, 144 h, read-out: control of mites. How it is done: Twospotted spider mite: Leaves infested with adult and nymphal stages of the two-spotted spider mite, obtained from a stock culture were placed on the primary leaves of two bean plants growing in a 6 cm. peat pot. A sufficient number of mites (150-200) for testing were transferred to the fresh plants within a period of twenty-four hours. The potted plants (one pot per compound) were placed on a revolving turntable and sprayed, sufficient to wet the plants to runoff, with 100 ml of the 100 ppm test compound formulation by use of a DeVilbiss spray gun set at 40 psig. air pressure. As an untreated control, 100 ml of the water-acetone-DMF-emulsifler solution, containing no test compound, were also sprayed on infested plants. A treated control with a commercial technical compound, either dicofol or hexythiazox, formulated in the same manner, was tested as a standard. The sprayed plants were held for six days, after which a mortality count of motile forms was made.

Assay [6] relates to tobacco budworm. The assay can be described thus: Tobacco budworm foliar spray test on cotton plants. The settings on record: Heliothis virescens, 120 h; foliar application at 100 ppm; second instar larvae, held five days; read-out: pest mortality TBW. How it is done: as §1
Tobacco budworm: Potted cotton plants were placed on a revolving turntable and sprayed with 100 ml of the 100 ppm test compound formulation by use of a DeVilbiss spray gun set at 40 psig air pressure. As an untreated control, 100 ml of a water-acetone-DMF-emulsifier solution, containing no test compound, were also sprayed on plants. A treated control with a commercial technical compound, either cypermethrin or sulprofos, formulated in the same manner, was tested as a standard. When dry, the leaves were placed in plastic dishes containing a piece of filter paper and a moistened dental wick. One randomly selected second instar tobacco budworm larva was then introduced into each cup which was closed and held for five days. Larvae unable to move the length of their body, even upon stimulation by prodding, were considered dead.

Read-outs that look alike come from different tables or passages of the source.

Consider `COC(C)C(=O)Nc1c([S+]([O-])C(F)(F)F)c(C#N)nn1-c1c(Cl)cc(C(F)(F)F)cc1Cl` (stereo not shown) [Compound 24], for which the mortality at 100 ppm in assay [1] was in the range of 70 to 100%; in assay [2], 70 to 100%; in assay [3] it was 70 to 100%; in assay [5] (foliar), 30 to 70%. Moreover, the mortality in assay [4] lay in the range of 70 to 100%.
`COCC(=O)Nc1c(SC(F)(Cl)Cl)c(C#N)nn1-c1c(Cl)cc(OC(F)(F)F)cc1Cl` [Compound 46]: the mortality at 100 ppm in assay [1] fell in the range of 70 to 100%; in assay [3], 70 to 100%; in assay [6], 70 to 100%; in assay [5] (100 ppm in foliar bait tests), 30 to 70%.
With `COC(C)C(=O)Nc1c(SC(F)(Cl)Cl)c(C#N)nn1-c1c(Cl)cc(OC(F)(F)F)cc1Cl` (stereo not shown) [Compound 47], the mortality at 100 ppm was 70 to 100% in assay [1], 70 to 100% in assay [3], 70 to 100% in assay [6] and 30 to 70% in assay [5] (100 ppm in foliar bait tests).
